Patent EP2545917B1, “NOVEL EP4 AGONIST” (Kaken Pharmaceutical Co., Ltd., priority 2010, dated 2011)

Columns and labels:
[1] = Plasma pharmacokinetics after intravenous administration to rats; format: in vivo; conditions: male, rat
Protocol: To verify the in vivo metabolic stability of the compound of the present invention, plasma pharmacokinetics was evaluated after intravenous administration to rats. Male rats (6 weeks old, body weight 160 - 180 g) were acclimated for 1 week, and the animals diagnosed healthy were used. A mixture of compound F and compound J of the present invention described in Table 1 (F:J = 52:41), and a mixture of carboxylate forms of compound F and compound J (F:J = 54:34), and compound F (synthesized in Example 9) were dissolved in a small amount of ethanol and physiological saline was added to prepare test compound solutions. The test compound solutions were instantaneously administered intravenously at 1 mL/kg from the femoral vein of non-fasting rats under light ether anesthesia. Venous blood was drawn from the tail vein 5, 15, 30, 45, 60, 90 and 120 min after administration. The blood was mixed with heparin and centrifuged (3000 rpm, 4°C, 15 min) to obtain plasma. The plasma compound concentration was determined by the internal standard method using LC-MS/MS. The determination range by this method was from 0.1 to 100 ng/mL. The compound concentrations obtained from each rat were analyzed in a model-independent way using a pharmacokinetics analysis software WinNonlin (ver.3.3), and average ± standard deviation of 3 animals for each group was obtained.

IL-2 = test: Suppressive effect on cytokine production, CD4 positive T cells stimulated with anti-CD3 and anti-CD28 antibody, ELISA; format: cell-based; conditions: human CD4 positive T cells, anti-CD3/anti-CD28, 24 hr; geometric mean of three volunteers
Protocol: (§1) Blood was collected from 3 healthy volunteers, and CD4 positive T cells were prepared. […] In both cases, the test compound was added 30 min before stimulation.

TNF-α = test: as above; format: cell-based; conditions: human CD4 positive T cells, anti-CD3/anti-CD28, 24 hr; geometric mean of three volunteers
Protocol: as §1

[2] = test system: dextran sodium sulfate-induced colitis; test: Prophylactic effect on dextran sodium sulfate-induced colitis in rats; format: in vivo; conditions: SD rats, 5.5 w/v% DSS, oral 1 mg/kg and 3 mg/kg once a day
Protocol: Prophylactic effect of compound F on colitis was also studied in rats. Male SD rats, 7 weeks old, body weight around 210 g - 240 g (Charles River) were purchased, acclimated for 1 week and used for the study. Except the normal group, the rats were allowed to freely drink a DSS (MP Biochemicals, M.W. 36,000-50,000, Lot No. 4556J) solution prepared to 5.5 w/v% for 8 days to induce colitis. Compound F at doses of 0.3, 1 and 3 mg/kg was orally administered once a day, daily, from one day before the start day of DSS drinking to one day before autopsy (day 7). To the control group was orally administered a solvent (1 vol% ethanol solution) at 5 mL/kg.
On day 8 from the start of DSS drinking, 1.25 w/v% Evans blue solution was administered at 0.2 mL/100 g from the tail vein. After 30 min, the rats were subjected to laparotomy under ether anesthesia and exsanguinated to death. Thereafter, the large intestine was dissected from just below the cecum to the anus, and the length was measured with a scale. […] The next day, the dry weight was measured, formamide (2 mL) was added, the dye was extracted at 50°C overnight, and the level thereof was measured at 620 nm. A standard curve was prepared using an Evans blue standard solution, and the amount (mg) of Evans blue in 1 g of the colonic tissue was calculated to estimate degree of colonic tissue injury. […]

[3] = test system: dextran sodium sulfate-induced colitis; test: Therapeutic effect on remission/relapse model of dextran sodium sulfate-induced colitis in mice; format: in vivo, BALB/c mice
Source text: Next, therapeutic effect of compound F on colitis was studied in a chronic model. Female BALB/c mice, 6 weeks old, body weight about 20 g (Japan SLC) were purchased, acclimated for 1 week and used for the study. The mice were divided into a colitis induction group and a normal group. The colitis induction group was allowed to freely drink a 2.6 w/v% DSS (MP Biochemicals, M.W. 36,000- 50,000, Lot No. 4556J) solution to induce colitis. On day 8 when the stool score (defined in Example 23) of the colitis induction group reached about 4.5, the mice were subdivided into a control group, a compound F 1 mg/kg administration group and a salazosulfapyridine (SIGMA, Lot No. 085K1930, hereinafter to be abbreviated as SASP) 100 mg/kg administration group. Then the mice were allowed to freely drink distilled water instead of DSS solution for 9 days (remission period). After the grouping, the stool score was evaluated every 3 - 4 days. When the score of the control group reached about 1, the mice were again allowed to drink the DSS solution to cause a relapse (relapse period). The periods of remission and relapse were taken as 1 cycle and the cycle was repeated 5 times. As for the 5th cycle, however, only the remission period was performed.
Compound F at a dose of 1 mg/kg and SASP at a dose of 100 mg/kg were orally administered once a day, daily, for 50 days from the initial remission period (day 8 from the start of 2.6 w/v% DSS drinking) to the fifth remission period (day 57 from the start of 2.6 w/v% DSS drinking). To the control group was orally administered a solvent (1 vol% ethanol solution) at 10 mL/kg. If a mouse had score 0 of both stool consistency score and occult blood score on the last day of each remission period, the mouse was regarded as "in remission". The remission ratio (%) was calculated as a ratio of mice in remission in each group. Eight to 10 mice were used for each group and the results are shown in average value.

[4] = mice, oral once a day, Compound F 1 mg/kg, SASP 100 mg/kg

half-life ([1]; iv, 50 ug/kg): 1.92 ± 0.517 h | half-life ([1]; iv, 300 ug/kg): 2.63 ± 0.25 h | half-life ([1]; rats, intravenous, summary of Table 3): 1 to 2 h | IC50 (IL-2): 0.509 nM | IC50 (TNF-α): 1.25 nM
Compound: Cc1cccc([C@@H](C)[C@H](O)/C=C/[C@@H]2[C@@H]3[C@H](C[C@H]2O)O/C(=C\CCCc2nnn[nH]2)C3(F)F)c1 [Compound F, 4-[(Z)-(1S,5R,6R,7R)-6-[(1E,3R,4R)-3-hydroxy-4-(m-tolyl)-1-pentenyl]-7-hydroxy-2-oxa-4,4-difluoro-bicyclo[3.3.0]octan-3-ylidene]-1-(tetrazol-5-yl)butane]
effect on stool score, colonic tissue injury and shortening of the large intestine [2]: a suppressive tendency or significant suppressive effect on these events | Remission Ratio Average ([3]; average of 5 remission periods, Compound F 1 mg/kg, SASP 100 mg/kg): 66.0% | remission ratio in any remission period ([3]; mice, oral 1 mg/kg once a day): not less than 60% | effect on stool score in remission and relapse periods ([3]; mice, oral once a day for 50 days, compound F 1 mg/kg, SASP 100 mg/kg): decreased the stool score early in the remission period, and suppressed an increase in the score in the relapse period | Remission Ratio Cycle 1 [3, 4]: 60.0% | Remission Ratio Cycle 2 [3, 4]: 80.0% | Remission Ratio Cycle 3 [3, 4]: 70.0% | Remission Ratio Cycle 4 [3, 4]: 60.0% | Remission Ratio Cycle 5 [3, 4]: 60.0%
